# According to patent US20230052740A1, “MODULATORS OF CIRCADIAN RHYTHMS AND USES THEREOF” (The Regents of the University of California, priority 2019, published 2023):
# Where two headings read alike, the source gives them in different places.
# Legend:
# hMT1 [1] = molecular target: T1, hMT1 (Homo sapiens, UniProt P48039); test: cAMP assay (GloSensor), isoproterenol-stimulated cAMP in HEK cells; type: cell-based; design: expressed in transfected cells; host or cells: HEK-T (HEK-293 T) cells, co-transfected with GloSensor DNA; conditions: agonist; for Emax: normalized to melatonin response, read-out: MT1 % Emax (converted)
# T1 sequence (P48039 whole entry): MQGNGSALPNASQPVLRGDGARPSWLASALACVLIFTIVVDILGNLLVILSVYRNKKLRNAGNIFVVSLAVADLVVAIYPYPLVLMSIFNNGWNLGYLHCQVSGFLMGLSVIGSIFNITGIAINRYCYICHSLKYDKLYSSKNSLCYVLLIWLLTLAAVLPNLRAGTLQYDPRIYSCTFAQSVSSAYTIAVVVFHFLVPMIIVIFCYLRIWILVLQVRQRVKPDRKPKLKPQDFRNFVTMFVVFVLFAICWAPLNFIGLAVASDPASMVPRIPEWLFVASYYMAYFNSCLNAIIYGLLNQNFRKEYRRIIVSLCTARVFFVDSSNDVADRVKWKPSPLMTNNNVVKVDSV
# Procedure: HEK-293 T cells were maintained with complete Dulbecco's modified Eagle's medium (DMEM), which is composed of 10% fetal bovine serum (FBS), 2 mM L-glutamine, 100 units/ml penicillin G, 100 μg/ml streptomycin at 37° C. in the presence of 5% CO2
# (§1) MT1 and MT2 receptors were tested using Promega's spilt luciferase based GboSensor cAMP biosensor technology. HEK-T cells were plated in 15 cm cell culture dish (at a density of 18 million cells) containing DMEM composed of 10% dialyzed FBS, 2 mM L-glutamine, 100 units/ml penicillin G, 100 μg/ml streptomycin for 4-6 hour. Then, cells were co-transfected with 8 μg of construct which encodes either MT1 or MT2 (de-Tangonized constructs) and […] of Glosensor DNA. Next day, transfected cells were seeded into poly-L-lysinecoated 384-well white clear bottom cell culture plates with complete DMEM with 1% dialized FBS at a density of 20,000 cells per well for another 24 h. The next day, cell medium were discarded and loaded with 20 μl of assay buffer (1×HBSS, 20 mM HEPES, pH 7.4, 0.1% BSA). To measure agonist activity of MT1 or MT2 receptor, 10 μl of test compound solution at 3× final concentration was added for 15 minutes followed by addition of 10 μl of luciferin/isoproterenol mixture (at a final concentration of 4 mM and 200 nM respectively) for another 15 mins for luminescence quantification. Then, plates were counted using SpectraMax luminescence reader (Molecular Device). Data were analyzed using GraphPad Prism 6.0.
# MT2 [2] = molecular target: T2, MT2 (Homo sapiens, UniProt P49286); test: Ligand bias quantification (G protein vs β-arrestin pathway, melatonin as reference); type: cell-based; design: expressed in transfected cells; host or cells: HEK-T cells (Gi/cAMP arm) and HTLA cells (β-arrestin Tango arm); conditions: at MT2; bias factor 10^ΔΔLog(Emax/EC50)
# T2 sequence (P49286 1-362): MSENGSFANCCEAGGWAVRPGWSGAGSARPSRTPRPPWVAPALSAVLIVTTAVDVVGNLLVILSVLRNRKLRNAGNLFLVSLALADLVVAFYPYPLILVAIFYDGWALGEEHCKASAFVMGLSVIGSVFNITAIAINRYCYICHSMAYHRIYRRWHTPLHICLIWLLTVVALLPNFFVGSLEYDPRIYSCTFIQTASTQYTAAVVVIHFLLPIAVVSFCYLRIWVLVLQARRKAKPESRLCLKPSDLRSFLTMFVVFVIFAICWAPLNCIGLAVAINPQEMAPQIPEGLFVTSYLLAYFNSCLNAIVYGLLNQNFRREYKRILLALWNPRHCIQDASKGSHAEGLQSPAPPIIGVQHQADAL
# MT2 [3] = molecular target: T2, MT2; test: cAMP assay (GloSensor), isoproterenol-stimulated cAMP in HEK cells; type: cell-based; design: expressed in transfected cells; host or cells: HEK-T (HEK-293 T) cells, co-transfected with GloSensor DNA; conditions: for Emax: normalized to melatonin response, read-out: MT2 % Emax (converted)
# Procedure: as §1, with “Next day, transfected cells were seeded into poly-L-lysinecoated 384-well white clear bottom cell culture plates with complete DMEM with 1% dialized FBS at a density of 20,000 cells per well for another 24 h.” left out
# hMT1 [4] = molecular target: T1, hMT1; test: 2-[125I]-iodomelatonin competition binding, CHO cell membranes; conditions: CHO-hMT1; affinity shift by G protein inactivation
# Procedure: For receptor binding studies, '7447 was dissolved in 50% DMSO/50% ethanol for 13 mM stock solution, diluted 1/10 in 100% ethanol then 1/10 again in 50% ethanol/50% Tris-HCl buffer. Both '3384 and '4226 were dissolved in 100% ethanol for 13 mM stock solutions and then diluted 1/10 in 50% ethanol/50% Tris-HCl buffer. Further dilutions were done in Tris-HCl buffer.
# Assays were incubated for 1 hour at 25° C. Bound radioligand was separated from freeby rapidvacuum filtration using glass microfiber filters (Whatman, Krackeler Scientific, Inc., Albany N.Y., USA) saturated in 0.5% polyethylenimine solution.
# Affinity shifts or lack thereof with G protein inactivation indicate apparent efficacy (Lefkowitz, R. J. et al., J Biol Chem 251, 4686-4692, 1976) as ligands are classified as agonists (ΔpKi% MLT>20%), antagonists (ΔpKi% MLT<20%, >−20%), or inverse agonists (ΔpKi% MLT<−20%) accordingly.
# C3H/HeN mice = test: Re-entrainment of running wheel activity after 6 h advance of dark onset (jet-lag model); type: in vivo; conditions: 30 μg/mouse s.c., 3 days, WT; in words
# Source text: Male and female C3H/HeN (C3H) wild-type (WT), MT1 knockout (MT1KO), and MT2 knockout (MT2KO) mice (average 6.28 months) used in this study were raised in our breeding colony at University at Buffalo. […] Genotype was confirmed using tail samples at the end of each experiment and was verified periodically during the tenure of the colony. The strains of mice in our breeding colony were re-derived periodically by backcrossing with WT mice to reduce genetic drift.
# Mice were group housed (3-5 per cage) with corncob bedding in polycarbonate translucent cages (30×19 cm) and maintained in a 14/10 light-dark (LD) cycle (Zeitgeber time 0 or ZT0 corresponds to Lights ON and ZT 14 to Lights OFF) in temperature and humidity controlled rooms with ad libitum access to food and water in the Laboratory Animal Facility at the University at Buffalo. Light levels were 200-300 lux at the level of the cage. Treatments and animal care performed in the dark were under a dim red safelight (15 watts, Kodak 1A filter) with illuminance of less than 3-5 lux (Benloucif, S. & Dubocovich, M. L. J Biol Rhythms 11, 113-125, (1996). All experimental procedures using mice were conducted in accordance with guidelines set forth by the National Institutes of Health and approved by the University at Buffalo Institutional Animal Care and Use Committee.
# Circadian rhythm phase was determined for each mouse using the onset of running wheel activity defined as CT12 (Circadian Time 12). Running wheel activity was measured continuously via magnetic microswitches detecting wheel revolutions with a computer equipped with Clocklab data collection Software™ (Actimetrics: Wilmette, Ill.). All actigraphy data was visualized and analyzed using ClockLab™ and MATLAB™ software. All mice were individually housed in cages (33×15 cm) equipped with running wheels in light-tight ventilated cabinets with controlled temperature and LD cycles (Phenome Technologies: Skokie, Ill.). Male and female mice were housed in separate cabinets for all experiments.
# Male and female C3H WT, MT1KO, and MT2KO mice (3 to 6 months) were maintained under a 12:12 LD cycle for at least 2 weeks prior experimental manipulations to allow stable entrainment to dark onset before advance of the LD cycle. Actigraphy data was recorded as described above and all experiment protocols performed as described (Dubocovich, M. L. et al., J Pineal Res 39, 113-120, 2005). On the first day of treatment, the dark onset was advanced 6 h. […] Post treatment, mice were given 14-20 days to re-entrain running wheel activity onsets to the new dark onset. Using exported running wheel activity onsets from actograms, onset hours advanced each day were determined by subtracting this value each day from the average onset of running wheel activity for 3 days prior to treatment for each mouse. Further, using the data from this calculation combined with visualization of actograms, the number of days to reach stable re-entrainment was determined for each mouse.
# All statistical analyses as described in further detail for each experiment were conducted using GraphPad Prism 8™ (La Jolla, Calif.). All data sets were visualized for normality using QQ plots of predicted vs. actual residuals. Actigraphy data was generated for visualization blind to treatment prior to the quantification and statistical analysis stages. […] Data in FIGS. 4F & 4G were compared via a two-way ANOVA (3×2: genotype x treatment) with Tukey's post hoc analyses (P<0.05). […]
Structure (SMILES),"Emax (hMT1 [1]; HEK293, Table 2) [%]",MT1 pEC50 (hMT1 [1]; Table 2),Bias (MT2 [2]),"Emax (MT2 [3]; HEK293, Table 2, agonist) [%]","MT2 pEC50 (MT2 [3]; Table 2, agonist)",ΔpKi (pKi control − pKi inactive) (hMT1 [4]),rate of re-entrainment to the new light-dark cycle (C3H/HeN mice),"Emax (hMT1 [1]; HEK293, Table 1) [%]",MT1 pEC50 (hMT1 [1]; Table 1),selectivity for the MT2 receptor (MT2 [3]) [fold],"Emax (MT2 [3]; HEK293, Table 1, agonist) [%]","EC50 (MT2 [3]; agonist, read-out: EC50 at MT2) [nM]"
COc1ccc2c(c1)N(Cc1ccn(C)c(=O)c1)CCO2 [ZINC608506688],99,9.78 ± 0.13,8.2,89,8.60 ± 0.10,,,,,,,
"COc1ccc2[nH]cc(CCNC(C)=O)c2c1 [Melatonin, reference compound]",,,,,,1.19,accelerated re-entrainment,,,,,
COc1ccc2c(c1)N(Cc1ccc(C#N)c(OC)c1)CCO2 [ZINC442850041],,,0.046,,,,,99,7.91 ± 0.04,25,97,0.47
